Data published in patent EP4635500A1, “THERAPEUTIC AGENT FOR BACTERIAL INFECTION” (Sumitomo Pharma Co., Ltd., priority 2022, dated 2024).
Converted amounts (≈) assume the structure as drawn. Like-named read-outs stand apart in the source and are kept apart here.

Tests used:
P. aeruginosa = assay: MIC, broth microdilution, CDC/FDA Antibiotic Resistance Isolate Bank (Example 7, Tables 10, 15); assay type: cell-based; conditions: for MIC: Pseudomonas aeruginosa, read-out: MIC
53 CRE and CPE strains = assay: MICrange, MIC50, MIC80, MIC90 for 53 bacterial isolates (Example 5, Table 5); assay type: cell-based
[1] = 26 metallo-carbapenemase-producing P. aeruginosa strains, β-lactamase inhibitor µg/mL in parentheses
[2] = 96 strains of P. aeruginosa, β-lactamase inhibitor µg/mL in parentheses

CN(C)c1cc(NC(=O)CNC(C)(C)C)c(O)c2c1C[C@H]1C[C@H]3[C@H](N(C)C)C(O)=C(C(N)=O)C(=O)[C@@]3(O)C(O)=C1C2=O [Tigecycline, tigecycline]
MIC against 26 metallo-carbapenemase-producing strains MIC50 (P. aeruginosa; [1]): 4 µg(mL)
MIC against 26 metallo-carbapenemase-producing strains MIC90 (P. aeruginosa; [1]): 16 µg(mL)
MIC against 26 metallo-carbapenemase-producing strains MICrange (P. aeruginosa; [1]): 1 - 16 µg(mL)
MIC against 96 strains of P. aeruginosa MIC50 (P. aeruginosa; [2]): 4 µg(mL)
MIC against 96 strains of P. aeruginosa MIC90 (P. aeruginosa; [2]): 16 µg(mL)
MIC against 96 strains of P. aeruginosa MICrange (P. aeruginosa; [2]): 0.5 - 16 µg(mL)
MIC (P. aeruginosa; P. aeruginosa KUB No. 579, AR Bank # 447): 4 µg/mL (≈ 6.83 µM)
MIC (P. aeruginosa; P. aeruginosa KUB No. 5551, AR Bank # 54): 16 µg/mL (≈ 27.3 µM)
MIC (P. aeruginosa; P. aeruginosa KUB No. 5561, AR Bank # 64): 2 µg/mL (≈ 3.41 µM)
MIC (P. aeruginosa; P. aeruginosa KUB No. 5587, AR Bank # 90): 2 µg/mL (≈ 3.41 µM)
MIC (P. aeruginosa; P. aeruginosa KUB No. 5589, AR Bank # 92): 4 µg/mL (≈ 6.83 µM)
MIC (P. aeruginosa; P. aeruginosa KUB No. 5591, AR Bank # 94): 8 µg/mL (≈ 13.7 µM)
MIC (P. aeruginosa; P. aeruginosa KUB No. 5592, AR Bank # 95): 2 µg/mL (≈ 3.41 µM)
MIC (P. aeruginosa; P. aeruginosa KUB No. 5597, AR Bank # 100): 16 µg/mL (≈ 27.3 µM)
MIC (P. aeruginosa; P. aeruginosa KUB No. 5600, AR Bank # 103): 16 µg/mL (≈ 27.3 µM)
MIC (P. aeruginosa; P. aeruginosa KUB No. 5602, AR Bank # 105): 8 µg/mL (≈ 13.7 µM)
MIC (P. aeruginosa; P. aeruginosa KUB No. 5605, AR Bank # 108): 8 µg/mL (≈ 13.7 µM)
MIC (P. aeruginosa; P. aeruginosa KUB No. 5607, AR Bank # 110): 8 µg/mL (≈ 13.7 µM)
MIC (P. aeruginosa; P. aeruginosa KUB No. 5608, AR Bank # 111): 8 µg/mL (≈ 13.7 µM)
MIC (P. aeruginosa; P. aeruginosa KUB No. 5662, AR Bank # 229): 16 µg/mL (≈ 27.3 µM)
MIC (P. aeruginosa; P. aeruginosa KUB No. 5663, AR Bank # 230): 4 µg/mL (≈ 6.83 µM)
MIC (P. aeruginosa; P. aeruginosa KUB No. 5664, AR Bank # 231): 16 µg/mL (≈ 27.3 µM)
MIC (P. aeruginosa; P. aeruginosa KUB No. 5665, AR Bank # 232): 4 µg/mL (≈ 6.83 µM)
MIC (P. aeruginosa; P. aeruginosa KUB No. 5666, AR Bank # 23): 8 µg/mL (≈ 13.7 µM)
MIC (P. aeruginosa; P. aeruginosa KUB No. 5667, AR Bank # 234): 2 µg/mL (≈ 3.41 µM)
MIC (P. aeruginosa; P. aeruginosa KUB No. 5668, AR Bank # 235): 8 µg/mL (≈ 13.7 µM)
MIC (P. aeruginosa; P. aeruginosa KUB No. 5669, AR Bank # 236): 4 µg/mL (≈ 6.83 µM)
MIC (P. aeruginosa; P. aeruginosa KUB No. 5670, AR Bank # 237): 2 µg/mL (≈ 3.41 µM)
MIC (P. aeruginosa; P. aeruginosa KUB No. 5671, AR Bank # 238): 4 µg/mL (≈ 6.83 µM)
MIC (P. aeruginosa; P. aeruginosa KUB No. 5672, AR Bank # 239): 4 µg/mL (≈ 6.83 µM)
MIC (P. aeruginosa; P. aeruginosa KUB No. 5673, AR Bank # 240): 8 µg/mL (≈ 13.7 µM)
MIC (P. aeruginosa; P. aeruginosa KUB No. 5674, AR Bank # 241): 4 µg/mL (≈ 6.83 µM)
MIC (P. aeruginosa; P. aeruginosa KUB No. 5675, AR Bank # 242): 2 µg/mL (≈ 3.41 µM)
MIC (P. aeruginosa; P. aeruginosa KUB No. 5676, AR Bank # 243): 1 µg/mL (≈ 1.71 µM)
MIC (P. aeruginosa; P. aeruginosa KUB No. 5677, AR Bank # 244): 16 µg/mL (≈ 27.3 µM)
MIC (P. aeruginosa; P. aeruginosa KUB No. 5678, AR Bank # 245): 16 µg/mL (≈ 27.3 µM)
MIC (P. aeruginosa; P. aeruginosa KUB No. 5679, AR Bank # 246): 4 µg/mL (≈ 6.83 µM)
MIC (P. aeruginosa; P. aeruginosa KUB No. 5680, AR Bank # 247): 4 µg/mL (≈ 6.83 µM)
MIC (P. aeruginosa; P. aeruginosa KUB No. 5681, AR Bank # 248): 2 µg/mL (≈ 3.41 µM)
MIC (P. aeruginosa; P. aeruginosa KUB No. 5682, AR Bank # 249): 4 µg/mL (≈ 6.83 µM)
MIC (P. aeruginosa; P. aeruginosa KUB No. 5684, AR Bank # 251): 4 µg/mL (≈ 6.83 µM)
MIC (P. aeruginosa; P. aeruginosa KUB No. 5685, AR Bank # 252): 0.5 µg/mL (≈ 0.854 µM)
MIC (P. aeruginosa; P. aeruginosa KUB No. 5686, AR Bank # 253): 2 µg/mL (≈ 3.41 µM)
MIC (P. aeruginosa; P. aeruginosa KUB No. 5688, AR Bank # 255): 2 µg/mL (≈ 3.41 µM)
MIC (P. aeruginosa; P. aeruginosa KUB No. 5690, AR Bank # 257): 8 µg/mL (≈ 13.7 µM)
MIC (P. aeruginosa; P. aeruginosa KUB No. 5691, AR Bank # 258): 2 µg/mL (≈ 3.41 µM)
MIC (P. aeruginosa; P. aeruginosa KUB No. 5692, AR Bank # 259): 4 µg/mL (≈ 6.83 µM)
MIC (P. aeruginosa; P. aeruginosa KUB No. 5693, AR Bank # 260): 2 µg/mL (≈ 3.41 µM)
MIC (P. aeruginosa; P. aeruginosa KUB No. 5694, AR Bank # 261): 8 µg/mL (≈ 13.7 µM)
MIC (P. aeruginosa; P. aeruginosa KUB No. 5695, AR Bank # 262): 2 µg/mL (≈ 3.41 µM)
MIC (P. aeruginosa; P. aeruginosa KUB No. 5696, AR Bank # 263): 1 µg/mL (≈ 1.71 µM)
MIC (P. aeruginosa; P. aeruginosa KUB No. 5697, AR Bank # 264): 2 µg/mL (≈ 3.41 µM)
MIC (P. aeruginosa; P. aeruginosa KUB No. 5698, AR Bank # 265): 8 µg/mL (≈ 13.7 µM)
MIC (P. aeruginosa; P. aeruginosa KUB No. 5699, AR Bank # 266): 8 µg/mL (≈ 13.7 µM)
MIC (P. aeruginosa; P. aeruginosa KUB No. 5700, AR Bank # 267): 8 µg/mL (≈ 13.7 µM)
MIC (P. aeruginosa; P. aeruginosa KUB No. 5701, AR Bank # 268): 2 µg/mL (≈ 3.41 µM)
MIC (P. aeruginosa; P. aeruginosa KUB No. 5702, AR Bank # 269): 4 µg/mL (≈ 6.83 µM)
MIC (P. aeruginosa; P. aeruginosa KUB No. 5703, AR Bank # 270): 8 µg/mL (≈ 13.7 µM)
MIC (P. aeruginosa; P. aeruginosa KUB No. 5704, AR Bank # 271): 4 µg/mL (≈ 6.83 µM)
MIC (P. aeruginosa; P. aeruginosa KUB No. 5705, AR Bank # 272): 2 µg/mL (≈ 3.41 µM)
MIC (P. aeruginosa; P. aeruginosa KUB No. 5747, AR Bank # 351): 8 µg/mL (≈ 13.7 µM)
MIC (P. aeruginosa; P. aeruginosa KUB No. 5748, AR Bank # 352): 8 µg/mL (≈ 13.7 µM)
MIC (P. aeruginosa; P. aeruginosa KUB No. 5749, AR Bank # 353): 2 µg/mL (≈ 3.41 µM)
MIC (P. aeruginosa; P. aeruginosa KUB No. 5750, AR Bank # 354): 4 µg/mL (≈ 6.83 µM)
MIC (P. aeruginosa; P. aeruginosa KUB No. 5751, AR Bank # 355): 8 µg/mL (≈ 13.7 µM)
MIC (P. aeruginosa; P. aeruginosa KUB No. 5752, AR Bank # 356): 2 µg/mL (≈ 3.41 µM)
MIC (P. aeruginosa; P. aeruginosa KUB No. 5753, AR Bank # 357): 8 µg/mL (≈ 13.7 µM)
MIC (P. aeruginosa; P. aeruginosa KUB No. 5754, AR Bank # 358): 4 µg/mL (≈ 6.83 µM)
MIC (P. aeruginosa; P. aeruginosa KUB No. 5755, AR Bank # 359): 4 µg/mL (≈ 6.83 µM)
MIC (P. aeruginosa; P. aeruginosa KUB No. 5756, AR Bank # 360): 4 µg/mL (≈ 6.83 µM)
MIC (P. aeruginosa; P. aeruginosa KUB No. 5785, AR Bank # 439): 4 µg/mL (≈ 6.83 µM)
MIC (P. aeruginosa; P. aeruginosa KUB No. 5786, AR Bank # 440): 8 µg/mL (≈ 13.7 µM)
MIC (P. aeruginosa; P. aeruginosa KUB No. 5787, AR Bank # 441): 4 µg/mL (≈ 6.83 µM)
MIC (P. aeruginosa; P. aeruginosa KUB No. 5788, AR Bank # 443): 4 µg/mL (≈ 6.83 µM)
MIC (P. aeruginosa; P. aeruginosa KUB No. 5789, AR Bank # 444): 4 µg/mL (≈ 6.83 µM)
MIC (P. aeruginosa; P. aeruginosa KUB No. 5790, AR Bank # 445): 4 µg/mL (≈ 6.83 µM)
MIC (P. aeruginosa; P. aeruginosa KUB No. 5793, AR Bank # 449): 4 µg/mL (≈ 6.83 µM)
MIC (P. aeruginosa; P. aeruginosa KUB No. 5798, AR Bank # 455): 1 µg/mL (≈ 1.71 µM)
MIC (P. aeruginosa; P. aeruginosa KUB No. 5799, AR Bank # 456): 8 µg/mL (≈ 13.7 µM)
MIC (P. aeruginosa; P. aeruginosa KUB No. 5800, AR Bank # 457): 2 µg/mL (≈ 3.41 µM)
MIC (P. aeruginosa; P. aeruginosa KUB No. 5801, AR Bank # 458): 8 µg/mL (≈ 13.7 µM)
MIC (P. aeruginosa; P. aeruginosa KUB No. 5802, AR Bank # 459): 4 µg/mL (≈ 6.83 µM)
MIC (P. aeruginosa; P. aeruginosa KUB No. 5804, AR Bank # 862): 8 µg/mL (≈ 13.7 µM)
MIC (P. aeruginosa; P. aeruginosa KUB No. 5805, AR Bank # 863): 8 µg/mL (≈ 13.7 µM)
MIC (P. aeruginosa; P. aeruginosa KUB No. 5806, AR Bank # 864): 2 µg/mL (≈ 3.41 µM)
MIC (P. aeruginosa; P. aeruginosa KUB No. 5813, AR Bank # 508): 0.016 µg/mL (≈ 0.0273 µM)
MIC (P. aeruginosa; P. aeruginosa KUB No. 5814, AR Bank # 509): 0.008 µg/mL (≈ 0.0137 µM)
MIC (P. aeruginosa; P. aeruginosa KUB No. 5815, AR Bank # 510): 0.002 µg/mL (≈ 0.00341 µM)
MIC (P. aeruginosa; P. aeruginosa KUB No. 5816, AR Bank # 511): 0.004 µg/mL (≈ 0.00683 µM)
MIC (P. aeruginosa; P. aeruginosa KUB No. 5817, AR Bank # 512): 0.016 µg/mL (≈ 0.0273 µM)
MIC (P. aeruginosa; P. aeruginosa KUB No. 5818, AR Bank # 513): 0.008 µg/mL (≈ 0.0137 µM)
MIC (P. aeruginosa; P. aeruginosa KUB No. 5819, AR Bank # 514): 0.004 µg/mL (≈ 0.00683 µM)
MIC (P. aeruginosa; P. aeruginosa KUB No. 5820, AR Bank # 515): 0.008 µg/mL (≈ 0.0137 µM)
MIC (P. aeruginosa; P. aeruginosa KUB No. 5821, AR Bank # 516): 0.004 µg/mL (≈ 0.00683 µM)
MIC (P. aeruginosa; P. aeruginosa KUB No. 5823, AR Bank # 518): 0.016 µg/mL (≈ 0.0273 µM)
MIC (P. aeruginosa; P. aeruginosa KUB No. 5831, AR Bank # 526): 0.004 µg/mL (≈ 0.00683 µM)
MIC (P. aeruginosa; P. aeruginosa KUB No. 5832, AR Bank # 527): 0.002 µg/mL (≈ 0.00341 µM)
MIC (P. aeruginosa; P. aeruginosa KUB No. 5833, AR Bank # 528): 0.004 µg/mL (≈ 0.00683 µM)
MIC (P. aeruginosa; P. aeruginosa KUB No. 5834, AR Bank # 529): 0.004 µg/mL (≈ 0.00683 µM)
MIC90 (53 CRE and CPE strains; 53 CRE and CPE strains, read-out: MIC90): 2 µg/mL (≈ 3.41 µM)
MIC90 (53 CRE and CPE strains; 53 bacterial isolates): 2 µg/mL (≈ 3.41 µM)
MICrange (53 CRE and CPE strains; 53 bacterial isolates): 0.12 to 16 µg/mL
MIC50 (53 CRE and CPE strains; 53 bacterial isolates, read-out: MIC50): 0.5 µg/mL (≈ 0.854 µM)
MIC80 (53 CRE and CPE strains; 53 bacterial isolates, read-out: MIC80): 1 µg/mL (≈ 1.71 µM)
